Data set [1] concerns cross-linking of glycated bovine serum albumin (AGE-BSA) to the rat tail tendon collagen. Nature of the data set: Inhibition of cross-linking of glycated bovine serum albumin (AGE-BSA) to rat tail tendon collagen coated 96-well plate (ELISA). Particulars: 4 h, pH 7.4. Type of data set: biochemical. On the procedure:
The following method was used to evaluate the ability of the compounds of the present invention to inhibit the cross-linking of glycated bovine serum albumin (AGE-BSA) to the rat tail tendon collagen coated 96-well plate.
The AGE-BSA was prepared by incubating BSA at a concentration of 200 mg per ml with 200 mM glucose in 0.4M sodium phosphate buffer, pH 7.4 at 37° C. for 12 weeks. The glycated BSA was then extensively dialyzed against phosphate buffer solution (PAS) for 48 hours with additional 5 times buffer exchanges. The rat tail tendon collagen coated plate was blocked first with 300 μl of superbloc blocking buffer (Pierce #37515X) for one hour. The blocking solution was removed from the wells by washing the plate twice with PAS-Tween 20 solution (0.05% Tween 20) using a NUNC-multiprobe or Dynatech ELISA-plate washer. Cross-linking of AGE-BSA (1 to 10 μg per well depending on the batch of AGE-BSA) to rat tail tendon collagen coated plate was performed with and without the testing compound dissolved in PAS buffer at pH 7.4 at the desired concentrations by the addition of 50 μl each of the AGE-BSA diluted in PAS or in the testing compound at 37° C. for 4 hours. The unbrowned BSA in PAS buffer with or without testing compound were added to the separate wells as the blanks. The un-cross-linked AGE-BSA was then removed by washing the wells three times with PAS-Tween buffer. The cross-linked AGE-BSA to the tail tendon coated plate was then quantitated by the polyclonal antibody raised against AGE-RNase. After a one-hour incubation period, AGE antibody was removed by washing 4 times with PAS-Tween.
The bound AGE antibody was then detected with the addition of horseradish peroxidase-conjugated secondary antibody, e.g., goat anti-rabbit immunoglobulin and incubation for 30 minutes. The substrate of 2,2-azino-di(3-ethylbenzthiazoline sulfonic acid) (ABTS chromogen) (Zymed #00-2011) was added. The reaction was allowed for an additional 15 minutes and the absorbance was read at 410 nm in a Dynatech plate reader.
The % inhibition of each test compound was calculated as follows.
% inhibition={[Optical density (without compound)-optical density (with
compound)]/optical density (without compound)]}100%
The IC50 relative inhibition by various test compounds at 10 Mm is as follows: […]
On the technique in general: In an ELISA, binding on a coated surface is turned into a signal by an enzyme label.

The subject of another data set is gelatin, i.e., collagen. Nature of the data set: Surface browning experiment: gelatin/paper disks in glucose-6-phosphate. Particulars: Peridex at a final concentration of 0.04% chlorhexidine; 100 Mm glucose-6-phosphate, one week at 50° C., pH 7.4. On the procedure: To further study the ability of inhibitors of nonenzymatic browning to prevent the discoloration of protein on a surface, such as that which occurs on the tooth surface, the following surface browning experiment is performed. As a substitute for a pellicle-covered tooth surface, unexposed and developed photographic paper is used to provide a fixed protein (gelatin, i.e., collagen) surface on a paper backing. Five millimeter circles are punched and immersed for one week at 50° C. in a solution of 100 Mm glucose-6-phosphate in a 0.5M phosphate buffer, Ph 7.4, containing 3 Mm sodium azide. Glucose-6-phosphate is a sugar capable of participating in nonenzymatic browning at a more rapid rate than glucose. In addition to the glucose-6-phosphate, chlorhexidine and/or a compound of Formula I are included. After incubation, the gelatin/paper disks are rinsed with water, observed for brown color, and photographed.

The next data set deals with Maillard reaction. The settings on record: cited from earlier work; for catalysis of browning reactions in vitro: Nordbo, J. Dent. Res., 1979.
The next data set has as its system dental pellicle. Particulars: use of chlorhexidine; cited from earlier work.
For a further data set, the system named is RNAase. Particulars: free lysine; Eble et al., 1983; cited from earlier work.
Another data set relates to red blood cells. Particulars: in vivo, diabetic rabbits; 100 mg/kg by oral gavage; cited from earlier work.
The subject of data set [2] is glomerular basement membrane. Particulars: streptozotocin-diabetic rat; Brownlee et al., 1988; cited from earlier work.
The subject of data set [3] is aortic wall protein cross-linking. The settings on record: diabetic rats; cited from earlier work.
Data set [4] deals with immunoglobulin trapping in the kidney. Particulars: Brownlee et al., Diabetes 1986; cited from earlier work.

Where a name gives a salt, the structure may show the parent alone.

What is called IC50 is the concentration that gives 50% inhibition. Higher therefore signals lower potency.

`C1CNC(NN=C2CCC(=NNC3=NCCN3)CC2)=N1` [1,4-cyclohexane dione bis(2-hydrazino-2-imidazoline hydrazone]dihydrobromide dihydrate] yielded an IC50 in [1] of 100 µM. `CC(C=NNC1=NCCCN1)=NNC1=NCCCN1` [methyl glyoxal bis(2-hydrazino-1,4,5,6-tetrahydropyrimidine hydrazone)dihydrobromide] displayed an IC50 in data set [1] of 840 ± 120 µM. Against the preceding compound, the IC50 is about 8.4-fold higher.

Take `CC(C=NNC(=N)NCC(C)(C)CN(C)C)=NNC(=N)NCC(C)(C)CN(C)C` [methyl glyoxal bis[N-(2,2-dimethyl-3-dimethylaminopropyl)hydrazinecarboximidamide hydrazone]tetrahydrobromide]: in data set [1], the IC50 came to 440 ± 60 µM. Compared with the last compound, the IC50 is about 1.9-fold lower. Take `CCCC(=NNC1=NCCCN1)C(C)=NNC1=NCCCN1` [2,3-hexanedione bis(2-tetrahydropyrimidine)hydrazone dihydrobromide]: the midpoint of inhibition in data set [1], the IC50, lay at 33 µM. Compound `CC(=NNC1=NCCCN1)C(C)=NNC1=NCCCN1` [2,3-butanedione bis(2-tetrahydropyrimidine)hydrazone dihydrobromide] came in with an IC50 in [1] of 4.1 µM. Consider `[H]/N=C(\N/C(=N/[H])NCCCCCCNC(=N)NC(=N)Nc1ccc(Cl)cc1)Nc1ccc(Cl)cc1` [chlorhexidine], for which the “browning of gelatin disks with chlorhexidine” value with gelatin, i.e., collagen is reported as “significant browning”. Moreover, the “catalysis of browning reactions in vitro” value in the data set on Maillard reaction is “catalyze browning reactions in vitro”. Also, the “color formation in mixtures containing a sugar derivative and a source of amino groups” value in the data set with Maillard reaction (attributed to the Maillard reaction) was “increased color formation”. In the data set with dental pellicle, the dental pellicle entry is “increased dental pellicle”. As to benzalkonium chloride, the “catalysis of browning reactions in vitro” value with Maillard reaction is “catalyze browning reactions in vitro”. `C1=CC(=NNC2=NCCN2)C=CC1=NNC1=NCCN1` [1,4-benzoquinone bis(2-hydrazino-2-imidazoline hydrazone) dihydrobromide]: the IC50 in [1] was 20 µM. As to `OCCN1CCCN=C1NN=CC(=NNC1=NCCCN1CCO)c1ccco1` [furyl glyoxal bis[1-(2-hydroxyethyl)-2-hydrazino-1,4,5,6-tetrahydropyrimidine hydrazone]dimethanesulfonate dihydrate], inhibition in data set [1] was half-maximal at 20 µM (IC50).

Consider `NCCCC[C@H](N)C(=O)O` [lysine], for which the “competition with lysine on RNAase for binding of glycosylated protein” value in the data set with RNAase is on record as “would compete with the lysine on RNAase for the binding of glycosylated protein”. `C1CN=C(NN=C2CCCCC2=NNC2=NCCCN2)NC1` [1,2-cyclohexanedione bis(2-tetrahydropyrimidine)hydrazone dihydrobromide] yielded an IC50 in [1] of 6.7 µM. With `C(=NNC1=NCCN1)c1ccccc1C=NNC1=NCCN1` [o-phthalicdicarboxaldehyde bis(2-hydrazino-2-imidazoline hydrazone)dihydrobromide monohydrate], in data set [1], the IC50 came out at 430 ± 80 µM. For `CC(C=NNC1=NCCCN1CCO)=NNC1=NCCCN1CCO` [methyl glyoxal bis[1-(2-hydroxyethyl)-2-hydrazino-1,4,5,6-tetrahydropyrimidine hydrazone]dimethanesulfonate], the IC50 in data set [1] turned out to be 170 ± 110 µM. In data set [1], `CC(C=NNC1=NCCN1CCO)=NNC1=NCCN1CCO` [methyl glyoxal bis[1-(2-hydroxyethyl)-2-hydrazino-2-imidazoline hydrazone]dimethanesulfonate] showed an IC50 of 320 ± 70 µM. `c1coc(C(=NNC2=NCCN2)C(=NNC2=NCCN2)c2ccco2)c1` [furyl bis (2-hydrazino-2-imidazoline hydrazone) dihydrobromide]: the IC50 in data set [1] came out at 20 µM. Turning to `CC(C=NNC(=N)NCCN1CCOCC1)=NNC(=N)NCCN1CCOCC1` [methylglyoxal bis{N-[2-(4-morpholino)ethyl]hydrazinecarboximidamide hydrazone}tetrahydrobromide], the IC50 in data set [1] was 2200 ± 130 µM. On to `C(=NNC1=NCCN1)C(=NNC1=NCCN1)c1ccco1` [furyl glyoxal bis(2-hydrazino-2-imidazoline hydrazone) dihydrobromide dihydrate], for which the IC50 in data set [1] worked out at 120 ± 100 µM. In [1], `C1CCC(=NNC2=NCCN2)C(=NNC2=NCCN2)C1` [1,2-cyclohexanedione bis(2-hydrazino-2-imidazoline hydrazone)dihydrobromidedihydrate] registered an IC50 of 10 µM. In data set [1], `CCc1nnc(NN=CC(C)=NNc2nnc(CC)n2N)n1N` [methyl glyoxal-bis-(4-amino-3-hydrazino-5-ethyl-1,2,4-triazole)hydrazone dihydrochloride] came in with an IC50 of 120 µM. In data set [1], `OCCN1CCN=C1NN=CC(=NNC1=NCCN1CCO)c1ccccc1` [phenyl glyoxal bis[1-(2-hydroxyethyl)-2-hydrazino-2-imidazoline hydrazone]dimethanesulfonate dihydrate] had an IC50 of 90 ± 130 µM. In turn, `OCCN1CCN=C1NN=CC(=NNC1=NCCN1CCO)c1ccco1` [furyl glyoxal bis[1-(2-hydroxyethyl)-2-hydrazino-2-imidazoline hydrazone]dimethanesulfonate monohydrate] came in with an IC50 in [1] of 920 ± 260 µM. On the same count and under the same terms, the result for `C(=NNC1=NCCN1)c1cc2ccccc2cc1C=NNC1=NCCN1` [2,3-naphthalene dialdehyde bis(2-hydrazino-2-imidazoline hydrazone)dihydrobromide dihydrate] reads 30 µM. In the case of `N=C(N)NN` [aminoguanidine], in the data set with red blood cells, the “diabetes-induced changes in the deformability of red blood cells” value was “has been shown to prevent it in vivo”. In addition, the “intervention in the development of diabetic nephropathy” value in data set [2] is given as “intervenes in the development of diabetic nephropathy”. Besides, the “aortic wall protein cross-linking” value in [3] is listed as “diminishes aortic wall protein cross-linking”. Also, the “immunoglobulin trapping in the kidney” value in data set [4] is “reduction of immunoglobulin trapping in the kidney”. In turn, `N=C(N)NN=CC(=NNC(=N)N)c1ccco1` [furyl glyoxal bis (guanyl hydrazone)dihydrochloride dihydrate] registered an IC50 in data set [1] of 310 µM.

`CC(C=NNC1=NCCN1)=NNC1=NCCN1` [methyl glyoxal bis(2-hydrazino-2-imidazoline hydrazone) dihydrobromide]: it took 2040 ± 50 µM to reach half-maximal inhibition in [1] (IC50). `N=C(N)NN=CC(=NNC(=N)N)c1ccccc1` [phenyl glyoxal bis(guanylhydrazone)dihydrochloride] yielded an IC50 in data set [1] of 340 ± 190 µM.

Turning to `CC(CC(C)=NNC1=NCCN1)=NNC1=NCCN1` [2,4-pentanedione bis(2-hydrazino-2-imidazoline hydrazone)dihydrobromide], the IC50 in [1] stood at 40 µM. Turning to `OCCN1CCCN=C1NN=CC(=NNC1=NCCCN1CCO)c1ccccc1` [phenyl glyoxal bis[1-(2-hydroxyethyl)-2-hydrazino-1,4,5,6-tetrahydropyrimidine hydrazone]dimethanesulfonate dihydrate], in [1], half-maximal inhibition (IC50) was put at 70 ± 100 µM. `CC(C=NNc1nnc(C(C)C)n1N)=NNc1nnc(C(C)C)n1N` [methyl glyoxal-bis-(4-amino-3-hydrazino-5-isopropyl-1,2,4-triazole)hydrazone dihydrochloride] showed an IC50 in data set [1] of 110 µM. In turn, `CC(C=NNC(=N)NCCCN(C)C)=NNC(=N)NCCCN(C)C` [methyl glyoxal bis[N-3-dimethylaminopropyl)hydrazinecarboximidamide hydrazone]tetrahydrobromide] registered an IC50 in data set [1] of 220 ± 50 µM.

These data come from US5698563A, “Bis-[hydrazones]” (Alteon Inc., priority 1995, dated 1997).
